The values below are quoted from earlier work in patent US20150056194A1, “MODIFIED GREEN TEA POLYPHENOLS AND METHODS THEREOF FOR TREATING LIVER DISEASE” (priority 2013, published 2015).

The conditions of data set [1]: animals receiving tea preparations in cancer prevention studies.
The subject of another data set is influenza. To be noted: compared with EGCG.

In the case of `O=C(O[C@@H]1Cc2c(O)cc(O)cc2O[C@@H]1c1cc(O)c(O)c(O)c1)c1cc(O)c(O)c(O)c1` [EGCG, (−)-Epigallocatechin-3-gallate], the blood levels entry in data set [1] is “lower than 0.5 μuM”.
As to EGCG-palmitate, in the data set with influenza, the “anti-influenza activity, times more effective than EGCG” value is given as 24 times.
